Legend:
hGPR38R [1] = biological target: T1, hGPR38R (Homo sapiens, UniProt O43193); assay: GPR38 FLIPR functional agonist assay; format: cell-based; parameters: expressed in transfected cells; details: HEK-293 cells stably expressing the GPR38 receptor, agonist response, Fluo-4 fluorescence
Procedure: The potencies and efficacies of the compounds of this invention for GPR^38 can be determined by FLIPR assay performed on the human cloned receptor as described herein. It has been found, using the FLIPR functional assay, that compounds of formula (I) appear to be partial or full agonists of the GPR38 receptor.
GPR38FLIPR Functional Agonist Assay Protocol
HEK-293 cells stably expressing the GPR38 receptor were seeded (10,000 cells/well) into poly-D-lysine coated 384-well black-wall, clear-bottom microtitre plates (Becton Dickinson) 24 h prior to assay. On day of assay, cells were washed (×2) with 80 ul of assay buffer (Hanks Balanced Salts Solution (HBSS), 10 mM HEPES, 200 μM Ca^2+, 2.5 mM probenecid) using the EMBLA cell washer. After the final wash, buffer was aspirated to leave a residual volume of 30 ul on the cells. Cells were loaded with 1 μM (final) Fluo-4-AM fluorescent indicator dye (TefLabs) in assay buffer, (20 ul loading solution added to each well using the Multidrop). Plates were incubated for 1 h at 37° C., before being washed (×3) with 80 ul assay buffer using the EMBLA cell washer; 30 ul residual being left after the final wash. Plates were then assayed on a Fluorometric Imaging Plate Reader (FLIPR, Molecular Devices). Test compounds were prepared in assay buffer without probenecid, but containing 0.03% CHAPS. In the FLIPR, 10 ul of test compound was added to the cells and changes in fluorescence measured over a 2 min timeframe. Maximum change in fluorescence over baseline was used to determine agonist response and concentration response curves were constructed, using a 4-parameter logistic equation.
(§1) The following alternative procedure may also be used:
HEK-293 cells stably expressing the GPR38 receptor were seeded (30,000 cells/100 ul growth media/well) into poly-D-lysine coated 96-well black-wall, clear-bottom microtitre plates (Corning) 24 hours prior to assay. On the day of assay the cells were loaded with 2 μM (final) Fluo-4-AM fluorescent indicator dye (Molecular Probes) and 1 mM (final) probenicid in assay buffer (145 mM sodium chloride, 2.5 mM potassium chloride, 10 mM Hepes, 10 mM glucose, 1.2 mM magnesium chloride, 1.5 mM calcium chloride and 0.1% BSA) (50 ul loading solution added to each well). Plates were incubated for 1 hour at 25° C., before being washed 4 times with 100 ul assay buffer using the EMBLA cell washer; 150 ul residual being left after the final wash. The cells were then incubated at 25° C. for 20 minutes and the plates were then assayed on a Fluorometric Imaging Plate Reader (FLIPR, Molecular Devices). Test compounds were prepared in assay buffer without probenecid. In the FLIPR, 50 ul of test compound was added to the cells and changes in fluorescence measured over a 2 minute timeframe. Maximum change in fluorescence over baseline was used to determine agonist response and concentration response curves were constructed, using a 4-parameter logistic equation.
Target sequence in this assay (O43193 whole entry): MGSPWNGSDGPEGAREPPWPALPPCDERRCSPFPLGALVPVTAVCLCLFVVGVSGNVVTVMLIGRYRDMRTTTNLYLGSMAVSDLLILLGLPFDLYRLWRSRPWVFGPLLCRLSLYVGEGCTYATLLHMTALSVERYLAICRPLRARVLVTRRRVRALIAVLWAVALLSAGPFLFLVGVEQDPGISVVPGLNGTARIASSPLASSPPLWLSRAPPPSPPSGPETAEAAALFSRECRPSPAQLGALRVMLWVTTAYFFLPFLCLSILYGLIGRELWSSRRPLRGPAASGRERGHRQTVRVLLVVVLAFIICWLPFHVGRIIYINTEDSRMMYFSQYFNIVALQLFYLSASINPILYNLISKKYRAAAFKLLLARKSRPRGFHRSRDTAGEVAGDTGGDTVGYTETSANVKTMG

hGPR38R [2] = biological target: T1, hGPR38R; assay: GPR38 GTPγS functional agonist assay; format: biochemical; parameters: expressed in transfected cells; host or cells: HEK293 (transient transfection; P2 membrane fractions)
Procedure: The potencies and intrinsic activities of the compounds of this invention can also be determined according to the [35S]GTPγS functional assay which is described herein. It has been found, using the [35S]GTPγS functional assay, that compounds of formula (I) appear to be partial or full agonists of the GPR38 receptor.
GPR38GTPγS Functional Agonist Assay Protocol
For each compound being assayed, in an Opti clear bottom 96 well plate, is added:—
(a) 20 μl of test compound (or 10 μl of guanosine 5′-triphosphate (GTP) as non-specific binding control) diluted to required concentration in assay buffer (20 mM N-2-Hydroxyethylpiperazine-N′-2-ethanesulfonic acid (HEPES)+100 mM NaCl+10 mM MgCl2, pH adjusted to 7.4 with NaOH); (b) 60 μl bead/membrane/GDP mix prepared by suspending wheat germ agglutinin-polyvinyltoluene (WGA-PVT) scintillation proximity assay (SPA) beads at 100 mg/ml in assay buffer followed by mixing with membrane (prepared in accordance with the methodology described above) and diluting in assay buffer to give a final volume of 60 μl which contains 10 μg protein and 0.5 mg bead per well—mixture is pre-mixed at 4° C. for 30 min on a roller and just prior to addition to the plate, 10 μM final concentration of guanosine 5′ diphosphate (GDP—diluted in assay buffer) is added; (c) 20 μl guanosine 5′ [γ35-S]thiotriphosphate, triethylamine salt (Amersham; radioactivity concentration=37 kBq/μl or 1 mCi/ml; Specific Activity 1160 Ci/mmol) diluted to 1.9 nM in assay buffer to give 0.38 nM final.
The plate is incubated on a shaker at 25° C. for 30 min followed by centrifugation for 5 min at 1500 rpm. The plate is read between 3 and 6 h after completion of centrifuge run in a Wallac Microbeta counter on a 1 min normalised tritium count protocol. Data is analysed using a 4-parameter logistic equation. Basal activity used as minimum.
as §1
Target sequence in this assay (O43193 whole entry): as above
Target sequence in this assay (P09471 2-354 partner limits assumed): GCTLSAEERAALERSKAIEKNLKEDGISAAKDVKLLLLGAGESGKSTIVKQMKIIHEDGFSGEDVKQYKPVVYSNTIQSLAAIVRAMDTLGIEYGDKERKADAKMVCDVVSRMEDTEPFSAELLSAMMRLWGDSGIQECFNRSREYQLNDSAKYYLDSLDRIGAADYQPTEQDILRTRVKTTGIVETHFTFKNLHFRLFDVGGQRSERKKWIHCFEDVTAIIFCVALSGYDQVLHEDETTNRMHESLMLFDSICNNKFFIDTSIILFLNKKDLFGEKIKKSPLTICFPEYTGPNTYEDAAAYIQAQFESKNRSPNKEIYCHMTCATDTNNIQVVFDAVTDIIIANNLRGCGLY
Target sequence in this assay (P62873 2-340 partner limits assumed): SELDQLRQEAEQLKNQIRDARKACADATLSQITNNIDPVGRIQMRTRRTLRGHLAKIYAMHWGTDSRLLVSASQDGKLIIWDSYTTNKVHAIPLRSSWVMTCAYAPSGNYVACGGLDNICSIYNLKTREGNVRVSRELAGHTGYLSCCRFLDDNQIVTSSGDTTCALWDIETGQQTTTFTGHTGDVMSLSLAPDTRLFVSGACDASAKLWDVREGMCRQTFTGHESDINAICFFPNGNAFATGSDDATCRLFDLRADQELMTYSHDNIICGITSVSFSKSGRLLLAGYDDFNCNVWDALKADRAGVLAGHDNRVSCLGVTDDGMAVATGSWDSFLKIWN
Target sequence in this assay (P59768 2-68 partner limits assumed): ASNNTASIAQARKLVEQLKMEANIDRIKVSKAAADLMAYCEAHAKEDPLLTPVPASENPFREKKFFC
Membranes are derived from bulk cell cultures of HEK293 cell lines transiently transfected with hGPR38R and Go G-protein. P2 membranes fractions are prepared, aliquoted and stored at −80° C.
For each compound being assayed, the following is added into a white Greiner 384 well plate:—
(a) 1 μl of test compound diluted to required concentration in DMSO. (b) 20 μl bead/membrane/Saponin/GDP mix prepared as follows;—suspension of LEADseeker wheat germ agglutinin (WGA) scintillation proximity assay (SPA) beads at 25 mg/ml in assay buffer (20 mM N-2-Hydroxyethylpiperazine-N′-2-ethanesulfonic acid (HEPES)+100 mM NaCl+10 mM MgCl2, pH adjusted to 7.4 with KOH) containing saponin at 150 ug/ml. Mixing of bead suspension with membranes at 500 ug/ml (prepared in accordance with the methodology described above) and diluting in assay buffer to give a final volume of 20 μl which contains 5 μg protein and 0.25 mg bead per well.
Mixture is pre-mixed for 30 minutes on a roller and just prior to addition to the plate, 3 μM final assay concentration of guanosine 5′ diphosphate (GDP) (diluted in assay buffer) is added.
(c) 25 μl guanosine 5′ [γ35-S]thiotriphosphate, triethylamine salt (Amersham; radioactivity concentration=37 kBq/μl or 1 mCi/ml; Specific Activity 1160 Ci/mmol) diluted to 0.6 nM in assay buffer to give 0.33 nM final assay concentration.
The plate is then spun for 2 minutes at 1500 rpm and then incubated at room temperature for 4 hours. The plate is then read on a Viewlux Plux (Perkin Elmer). Data is analysed using a 4-parameter logistic equation.

[3] = read-out: pEC50 in the FLIPR assay (converted)
[4] = [35S]GTPγS SPA, HEK293 membranes with hGPR38R and Go G-protein, read-out: pEC50 in the GTPγS assay (converted)

SMILES: C[C@@H]1CN(Cc2ccc(-c3cccnc3C(=O)N3CCC(Nc4ccc(F)cc4)C3)cc2)C[C@H](C)N1 (stereo partly drawn) [Example 16, 1-{[3-(4-{[(3R,5S)-3,5-dimethyl-1-piperazinyl]methyl}phenyl)-2-pyridinyl]carbonyl}-N-(4-fluorophenyl)-3-pyrrolidinamine]
- EC50 (hGPR38R [1]; [3]): < 316 nM
- EC50 (hGPR38R [2]; [4]): < 3160 nM

SMILES: COc1cc(-c2cccnc2C(=O)N2CCC(Nc3ccc(F)cc3)CC2)ccc1CN1C[C@@H](C)N[C@@H](C)C1 [Example 17]
- EC50 (hGPR38R [1]; pEC50 in the FLIPR assay): < 316 nM
- EC50 (hGPR38R [2]): < 3160 nM

SMILES: C[C@@H]1CN(Cc2ccc(-c3cccnc3C(=O)N3CCC(Nc4cccc(C#N)c4)CC3)cc2)C[C@H](C)N1 [Example 29, 3-[(1-{[3-(4-{[(3R,5S)-3,5-dimethyl-1-piperazinyl]methyl}phenyl)-2-pyridinyl]carbonyl}-4-piperidinyl)amino]benzonitrile]
- EC50 (hGPR38R [1]; [3]): < 316 nM
- EC50 (hGPR38R [2]; [4]): < 3160 nM

SMILES: C[C@@H]1CN(Cc2ccc(-c3cccnc3C(=O)N3CCC(Oc4cccc(F)c4)CC3)cc2)C[C@H](C)N1 [Example 34, (3R,5S)-1-({4-[2-({4-[(3-fluorophenyl)oxy]-1-piperidinyl}carbonyl)-3-pyridinyl]phenyl}methyl)-3,5-dimethylpiperazine]
- EC50 (hGPR38R [1]; [3]): < 316 nM
- EC50 (hGPR38R [2]; [4]): < 3160 nM

SMILES: C[C@@H]1CN(Cc2ccc(-c3cccnc3C(=O)N3CCC(Nc4ccc(F)c(F)c4)CC3)cc2)C[C@H](C)N1 [Example 15, N-(3,4-difluorophenyl)-1-{[3-(4-{[(3R,5S)-3,5-dimethyl-1-piperazinyl]methyl}phenyl)-2-pyridinyl]carbonyl}-4-piperidinamine]
- EC50 (hGPR38R [1]; pEC50 in the FLIPR assay): < 316 nM
- EC50 (hGPR38R [2]): < 3160 nM
